Measurements: ChEMBL document CHEMBL1158105, “Triterpene saponins from clematis mandshurica” (J Nat Prod, 2006)

Biological target: T1, Prostaglandin G/H synthase 2 (Mus musculus, UniProt Q05769)
T1 sequence (Q05769 whole entry): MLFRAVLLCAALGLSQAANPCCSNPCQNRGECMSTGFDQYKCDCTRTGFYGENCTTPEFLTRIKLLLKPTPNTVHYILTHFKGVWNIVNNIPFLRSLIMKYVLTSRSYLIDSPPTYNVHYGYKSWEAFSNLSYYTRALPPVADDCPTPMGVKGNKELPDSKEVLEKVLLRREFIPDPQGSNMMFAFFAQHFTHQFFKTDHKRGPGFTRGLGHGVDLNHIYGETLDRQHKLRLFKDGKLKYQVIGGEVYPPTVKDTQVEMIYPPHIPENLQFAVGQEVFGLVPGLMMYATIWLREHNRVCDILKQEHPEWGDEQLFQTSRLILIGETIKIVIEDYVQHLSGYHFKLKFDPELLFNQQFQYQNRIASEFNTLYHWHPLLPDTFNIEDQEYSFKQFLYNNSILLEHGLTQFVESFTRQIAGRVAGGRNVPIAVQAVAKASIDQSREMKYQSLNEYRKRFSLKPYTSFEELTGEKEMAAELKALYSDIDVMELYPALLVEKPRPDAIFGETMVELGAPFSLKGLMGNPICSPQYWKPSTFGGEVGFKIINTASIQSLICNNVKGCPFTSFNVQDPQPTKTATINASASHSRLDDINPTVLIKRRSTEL
Test: Inhibition of LPS-induced COX2 activity in C57BL/6J mouse peritoneal macrophages by RIA

IC50 | Compound
2580 nM | COc1cc(/C=C/C(=O)O[C@H]2[C@H](O[C@@H]3[C@@H](O)[C@H](O[C@@H]4CO[C@@H](O[C@@H]5[C@@H](O)[C@H](C)O[C@@H](O[C@H]6[C@H](O[C@H]7CC[C@]8(C)[C@H]9CC=C%10[C@@H]%11CC(C)(C)CC[C@]%11(C(=O)O[C@@H]%11O[C@H](CO[C@@H]%12O[C@H](CO)[C@@H](O[C@@H]%13O[C@@H](C)[C@H](O)[C@@H](O)[C@H]%13O)[C@H](O)[C@H]%12O)[C@@H](O)[C@H](O)[C@H]%11O)CC[C@@]%10(C)[C@]9(C)CC[C@H]8C7(C)C)OC[C@H](O)[C@@H]6O)[C@@H]5O)[C@H](O)[C@@H]4O)O[C@H](CO)[C@H]3O)O[C@H](CO[C@@H]3O[C@@H](C)[C@H](O)[C@@H](O)[C@H]3O)[C@@H](O)[C@@H]2O)ccc1O [CLEMATOMANDSHURICA SAPONIN B]
2660 nM | COc1ccc(/C=C/C(=O)O[C@@H]2[C@@H](O)[C@H](O[C@@H]3[C@@H](O)[C@H](O[C@@H]4CO[C@@H](O[C@@H]5[C@@H](O)[C@H](C)O[C@@H](O[C@H]6[C@H](O[C@H]7CC[C@]8(C)[C@H]9CC=C%10[C@@H]%11CC(C)(C)CC[C@]%11(C(=O)O[C@@H]%11O[C@H](CO[C@@H]%12O[C@H](CO)[C@@H](O[C@@H]%13O[C@@H](C)[C@H](O)[C@@H](O)[C@H]%13O)[C@H](O)[C@H]%12O)[C@@H](O)[C@H](O)[C@H]%11O)CC[C@@]%10(C)[C@]9(C)CC[C@H]8C7(C)C)OC[C@H](O)[C@@H]6O)[C@@H]5O)[C@H](O)[C@@H]4O)O[C@H](CO)[C@H]3O)O[C@H](CO[C@@H]3O[C@@H](C)[C@H](O)[C@@H](O)[C@H]3O)[C@H]2O)cc1O [CLEMATOMANDSHURICA SAPONIN A]
